One molecule from article PMC6309937 (Pain, 2019) can be followed below.

What all share (format): cell-based
Experiment [1] has as its target hCav3.2 (Homo sapiens, UniProt O95180). Kind of experiment: whole-cell patch clamp, % inhibition of current. The settings on record: read-out: 20μM. (In general: In patch-clamp work, channel activity is measured electrically.)
Experiment [2] concerns the target hCav3.3 (Homo sapiens, UniProt Q9P0X4). Kind of experiment: whole-cell patch clamp, % inhibition of current. The settings on record: read-out: 20μM.
Experiment [3] deals with rCav2.2 (Rattus norvegicus, UniProt Q02294). As to the kind of experiment: whole-cell patch clamp, % inhibition of current at […]. The conditions noted are these: read-out: % inhibition at 20 μM.
Sequence of rCav2.2 (Q02294 whole entry): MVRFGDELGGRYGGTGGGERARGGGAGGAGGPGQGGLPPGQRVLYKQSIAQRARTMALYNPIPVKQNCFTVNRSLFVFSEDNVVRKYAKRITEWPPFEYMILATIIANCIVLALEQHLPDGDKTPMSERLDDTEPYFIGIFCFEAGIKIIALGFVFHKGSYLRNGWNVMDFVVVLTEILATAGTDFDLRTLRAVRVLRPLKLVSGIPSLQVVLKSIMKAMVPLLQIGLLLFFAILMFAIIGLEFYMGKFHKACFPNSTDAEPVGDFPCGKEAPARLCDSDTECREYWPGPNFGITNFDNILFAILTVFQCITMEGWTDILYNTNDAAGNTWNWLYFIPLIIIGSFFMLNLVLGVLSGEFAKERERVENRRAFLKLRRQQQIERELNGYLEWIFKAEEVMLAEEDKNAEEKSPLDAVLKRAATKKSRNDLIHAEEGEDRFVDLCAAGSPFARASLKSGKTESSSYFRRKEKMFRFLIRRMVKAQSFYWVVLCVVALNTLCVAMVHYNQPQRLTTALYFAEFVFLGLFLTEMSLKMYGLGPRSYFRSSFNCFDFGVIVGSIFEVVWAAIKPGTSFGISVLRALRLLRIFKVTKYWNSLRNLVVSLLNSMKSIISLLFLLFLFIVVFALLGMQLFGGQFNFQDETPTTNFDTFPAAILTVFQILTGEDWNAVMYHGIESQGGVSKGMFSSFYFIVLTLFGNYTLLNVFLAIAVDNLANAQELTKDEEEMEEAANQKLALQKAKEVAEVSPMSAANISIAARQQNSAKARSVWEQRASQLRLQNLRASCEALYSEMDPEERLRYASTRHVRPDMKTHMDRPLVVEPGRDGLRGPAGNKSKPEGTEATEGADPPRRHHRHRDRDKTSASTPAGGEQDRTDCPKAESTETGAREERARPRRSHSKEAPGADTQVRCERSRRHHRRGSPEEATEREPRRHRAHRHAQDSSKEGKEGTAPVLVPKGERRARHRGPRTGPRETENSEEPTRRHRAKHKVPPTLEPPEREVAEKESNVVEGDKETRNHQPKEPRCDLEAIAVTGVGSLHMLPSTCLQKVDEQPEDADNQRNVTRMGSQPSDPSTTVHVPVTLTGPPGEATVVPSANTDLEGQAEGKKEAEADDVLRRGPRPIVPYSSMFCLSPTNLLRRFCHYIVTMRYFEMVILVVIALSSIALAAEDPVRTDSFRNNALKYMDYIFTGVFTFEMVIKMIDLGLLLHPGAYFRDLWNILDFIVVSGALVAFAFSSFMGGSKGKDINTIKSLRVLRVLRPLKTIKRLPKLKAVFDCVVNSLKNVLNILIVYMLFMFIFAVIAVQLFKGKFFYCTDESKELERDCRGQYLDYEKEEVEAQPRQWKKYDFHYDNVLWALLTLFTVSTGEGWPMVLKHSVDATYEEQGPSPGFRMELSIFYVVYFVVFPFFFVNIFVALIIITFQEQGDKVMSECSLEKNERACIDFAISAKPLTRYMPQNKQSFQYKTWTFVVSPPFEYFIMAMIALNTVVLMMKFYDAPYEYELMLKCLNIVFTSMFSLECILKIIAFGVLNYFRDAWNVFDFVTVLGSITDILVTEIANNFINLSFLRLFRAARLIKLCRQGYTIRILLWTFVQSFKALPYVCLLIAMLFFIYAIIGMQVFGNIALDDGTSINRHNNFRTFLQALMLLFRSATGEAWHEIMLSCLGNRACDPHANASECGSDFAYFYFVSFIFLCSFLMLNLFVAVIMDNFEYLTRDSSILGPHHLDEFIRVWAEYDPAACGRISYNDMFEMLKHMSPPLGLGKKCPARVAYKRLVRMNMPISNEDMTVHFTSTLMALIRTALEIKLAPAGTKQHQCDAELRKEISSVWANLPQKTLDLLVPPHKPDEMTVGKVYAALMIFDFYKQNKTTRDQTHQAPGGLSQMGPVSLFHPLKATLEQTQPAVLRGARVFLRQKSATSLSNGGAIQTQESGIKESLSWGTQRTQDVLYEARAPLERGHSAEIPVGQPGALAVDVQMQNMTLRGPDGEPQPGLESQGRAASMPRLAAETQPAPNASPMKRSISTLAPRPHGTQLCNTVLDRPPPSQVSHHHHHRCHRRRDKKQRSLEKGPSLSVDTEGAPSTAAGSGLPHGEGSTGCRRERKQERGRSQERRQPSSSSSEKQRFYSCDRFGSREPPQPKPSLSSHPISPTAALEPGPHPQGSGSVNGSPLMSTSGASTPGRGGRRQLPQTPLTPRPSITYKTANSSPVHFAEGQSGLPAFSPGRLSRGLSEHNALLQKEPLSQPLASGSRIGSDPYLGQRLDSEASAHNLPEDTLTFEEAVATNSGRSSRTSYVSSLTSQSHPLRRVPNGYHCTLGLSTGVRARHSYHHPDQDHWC

Sequence of hCav3.3 (Q9P0X4 whole entry): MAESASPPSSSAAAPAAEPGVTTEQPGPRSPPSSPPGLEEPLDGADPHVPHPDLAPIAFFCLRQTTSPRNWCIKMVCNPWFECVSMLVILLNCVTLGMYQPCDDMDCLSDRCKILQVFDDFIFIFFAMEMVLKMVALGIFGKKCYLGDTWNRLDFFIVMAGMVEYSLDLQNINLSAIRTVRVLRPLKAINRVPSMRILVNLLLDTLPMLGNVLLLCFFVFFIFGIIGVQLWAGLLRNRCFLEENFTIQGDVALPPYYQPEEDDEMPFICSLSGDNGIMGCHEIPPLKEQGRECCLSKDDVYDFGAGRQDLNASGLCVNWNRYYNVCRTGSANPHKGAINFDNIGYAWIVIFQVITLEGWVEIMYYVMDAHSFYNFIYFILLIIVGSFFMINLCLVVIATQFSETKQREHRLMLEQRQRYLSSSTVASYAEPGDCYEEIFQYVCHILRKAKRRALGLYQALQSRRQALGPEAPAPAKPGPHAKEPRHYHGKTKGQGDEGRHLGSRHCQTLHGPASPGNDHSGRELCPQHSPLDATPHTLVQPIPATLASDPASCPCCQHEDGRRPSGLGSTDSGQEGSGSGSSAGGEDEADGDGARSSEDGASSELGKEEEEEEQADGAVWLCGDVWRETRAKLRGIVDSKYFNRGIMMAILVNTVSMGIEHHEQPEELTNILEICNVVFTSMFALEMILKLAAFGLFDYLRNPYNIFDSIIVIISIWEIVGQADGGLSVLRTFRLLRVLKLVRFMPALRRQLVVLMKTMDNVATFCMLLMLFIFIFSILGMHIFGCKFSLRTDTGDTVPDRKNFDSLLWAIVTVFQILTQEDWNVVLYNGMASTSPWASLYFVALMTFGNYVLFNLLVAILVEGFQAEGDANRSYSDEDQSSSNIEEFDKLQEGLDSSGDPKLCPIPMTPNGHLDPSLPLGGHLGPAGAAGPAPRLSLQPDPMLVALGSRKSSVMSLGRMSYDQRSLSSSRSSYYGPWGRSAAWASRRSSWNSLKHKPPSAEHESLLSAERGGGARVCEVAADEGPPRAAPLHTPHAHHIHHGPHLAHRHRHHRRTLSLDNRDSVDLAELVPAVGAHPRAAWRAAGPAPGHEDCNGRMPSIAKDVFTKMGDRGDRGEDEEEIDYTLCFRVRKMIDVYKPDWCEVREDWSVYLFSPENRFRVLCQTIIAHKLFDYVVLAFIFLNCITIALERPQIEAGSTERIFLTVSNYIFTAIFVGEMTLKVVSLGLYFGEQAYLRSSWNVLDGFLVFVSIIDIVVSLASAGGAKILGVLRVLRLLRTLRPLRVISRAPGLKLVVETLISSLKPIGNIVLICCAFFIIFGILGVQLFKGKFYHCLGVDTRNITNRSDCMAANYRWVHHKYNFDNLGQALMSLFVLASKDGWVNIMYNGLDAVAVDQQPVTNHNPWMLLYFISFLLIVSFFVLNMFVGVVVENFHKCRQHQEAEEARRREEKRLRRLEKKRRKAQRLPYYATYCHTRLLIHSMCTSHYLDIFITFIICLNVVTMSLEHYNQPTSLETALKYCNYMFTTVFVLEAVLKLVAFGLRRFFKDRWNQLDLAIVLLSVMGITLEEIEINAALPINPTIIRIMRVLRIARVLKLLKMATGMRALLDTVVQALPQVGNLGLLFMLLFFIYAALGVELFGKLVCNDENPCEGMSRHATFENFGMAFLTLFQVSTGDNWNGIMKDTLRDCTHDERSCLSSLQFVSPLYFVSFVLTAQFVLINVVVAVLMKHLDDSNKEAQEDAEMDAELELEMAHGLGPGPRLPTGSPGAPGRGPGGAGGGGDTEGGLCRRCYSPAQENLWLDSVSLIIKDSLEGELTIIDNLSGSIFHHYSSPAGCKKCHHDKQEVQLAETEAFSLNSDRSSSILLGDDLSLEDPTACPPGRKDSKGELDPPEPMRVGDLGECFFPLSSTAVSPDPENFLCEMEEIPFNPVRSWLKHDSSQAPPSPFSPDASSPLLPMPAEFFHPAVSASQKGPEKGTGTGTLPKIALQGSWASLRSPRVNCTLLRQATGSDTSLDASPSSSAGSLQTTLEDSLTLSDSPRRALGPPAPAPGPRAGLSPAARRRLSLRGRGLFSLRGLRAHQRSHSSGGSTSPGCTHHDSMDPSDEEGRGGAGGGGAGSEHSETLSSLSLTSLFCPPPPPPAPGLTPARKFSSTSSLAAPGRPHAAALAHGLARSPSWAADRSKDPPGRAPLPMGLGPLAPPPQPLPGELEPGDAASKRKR

Consider `C=C(C)[C@@H]1CC[C@]2(C(=O)O)CC[C@]3(C)[C@H](CC[C@@H]4[C@@]5(C)CC[C@H](O)C(C)(C)[C@@H]5CC[C@]43C)[C@@H]12` [BA, betulinic acid], for which the inhibition at 20 µM in experiment [1] was 66.1 ± 4.6%; in experiment [2] it was 31.4 ± 1.8%; in experiment [3], 69.8 ± 2.5%.
